# Literature values as cited in publication PMC9811213, “Glutamine deamidation does not increase the immunogenicity of C-peptide in people with type 1 diabetes” (Journal of Translational Autoimmunity, 2022).
# Assays:
# HLA-DQ8trans = settings: cited from earlier work
# Text: (§1) Beta cells are believed to be particularly susceptible to endoplasmic reticulum (ER) stress. […] Van Lummel et al. tested an array of candidate epitopes derived from beta cell antigens.
# HLA-DQ8 = settings: cited from earlier work
# Text: as §1
# [1] = system: PBMC from subjects with recent onset T1D; settings: samples from subjects with recent onset T1D; cited from earlier work
# Text: as §1
Sequence,Binding to HLA-DQ8trans compared with the native sequence (EAEDLQVGQVELG) (HLA-DQ8trans),Binding to HLA-DQ8 compared with the native sequence (EAEDLQVGQVELG) (HLA-DQ8),Frequency of peripheral blood responses compared with native PI30-43 peptide (TRREAEDLQVGQVE) [1]
"EAEDLEVGEVELG [deamidated PI33-45, deamidated PI33-45 (…) tested by van Lummel et al]",bound more strongly,bound more strongly,
"TRREAEDLEVGEVE [deamidated B-chain-C-peptide, deamidated B-chain-C-peptide PI30-43 (…) tested by van Lummel et al]",,,more frequently detected
